Measured values reported in PubChem BioAssay (NCI).
“And” between values parts separate entries of the source, which are not always exact repeats. Identical values can stand only once.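 These data come from cells grown in 96-well plates and exposed to compound for 48 hours at five concentrations. GI50: concentration for 50% inhibition of growth. TGI is the concentration that stops growth completely.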

How the values were obtained:
Assay in all cases: DTP human tumour cell line panel, 48 h
NCI-H226 lung = test system: NCI-H226 lung
HCT-15 colon = test system: HCT-15 colon
OVCAR-8 ovarian = test system: OVCAR-8 ovarian
COLO 205 colon = test system: COLO 205 colon
HCT-116 colon = test system: HCT-116 colon
T-47D breast = test system: T-47D breast
BT-549 breast = test system: BT-549 breast
U251 CNS = test system: U251 CNS
SK-OV-3 ovarian = test system: SK-OV-3 ovarian
CAKI-1 renal = test system: CAKI-1 renal
A498 renal = test system: A498 renal
OVCAR-5 ovarian = test system: OVCAR-5 ovarian
LOX IMVI melanoma = test system: LOX IMVI melanoma
CCRF-CEM leukemia = test system: CCRF-CEM leukemia
SF-295 CNS = test system: SF-295 CNS
MDA-MB-435 = test system: MDA-MB-435
MDA-MB-231 breast = test system: MDA-MB-231 breast
UACC-257 melanoma = test system: UACC-257 melanoma
HS 578T breast = test system: HS 578T breast
NCI/ADR-RES ovarian = test system: NCI/ADR-RES ovarian
PC-3 prostate = test system: PC-3 prostate
IGROV1 ovarian = test system: IGROV1 ovarian
RXF 393 renal = test system: RXF 393 renal
SK-MEL-5 melanoma = test system: SK-MEL-5 melanoma
SR leukemia = test system: SR leukemia
NCI-H460 lung = test system: NCI-H460 lung
HL-60(TB) leukemia = test system: HL-60(TB) leukemia
SNB-75 CNS = test system: SNB-75 CNS
786-0 renal = test system: 786-0 renal
HOP-62 NSCLC = test system: HOP-62 NSCLC
SF-539 CNS = test system: SF-539 CNS
NCI-H23 lung = test system: NCI-H23 lung
TK-10 renal = test system: TK-10 renal
RPMI-8226 leukemia = test system: RPMI-8226 leukemia
OVCAR-4 ovarian = test system: OVCAR-4 ovarian
EKVX NSCLC = test system: EKVX NSCLC
A549 NSCLC = test system: A549 NSCLC
SNB-19 CNS = test system: SNB-19 CNS
MCF7 breast = test system: MCF7 breast
UACC-62 melanoma = test system: UACC-62 melanoma
SW-620 colon = test system: SW-620 colon
HOP-92 NSCLC = test system: HOP-92 NSCLC
MALME-3M melanoma = test system: MALME-3M melanoma
SK-MEL-2 melanoma = test system: SK-MEL-2 melanoma
UO-31 renal = test system: UO-31 renal
SK-MEL-28 melanoma = test system: SK-MEL-28 melanoma
HCC-2998 colon = test system: HCC-2998 colon
HT29 colon = test system: HT29 colon
SN12C renal = test system: SN12C renal
MOLT-4 leukemia = test system: MOLT-4 leukemia
NCI-H522 lung = test system: NCI-H522 lung
K-562 leukemia = test system: K-562 leukemia
M14 melanoma = test system: M14 melanoma
ACHN renal = test system: ACHN renal
DU-145 prostate = test system: DU-145 prostate
SF-268 CNS = test system: SF-268 CNS

With `COc1cc(C)c(-c2ccc(=O)c(OC)cc2C)c(OC)c1OC` the GI50 (NCI-H226 lung) was > 100 µM and 86.5 µM, the TGI (NCI-H226 lung) was greater than 100 µM and the GI50 (HCT-15 colon) was > 100 µM and 12.9 µM. The TGI (HCT-15 colon) was greater than 100 µM, the GI50 (OVCAR-8 ovarian) was > 100 µM and 35.3 µM and the TGI (OVCAR-8 ovarian) was greater than 100 µM. The GI50 (COLO 205 colon) was > 100 µM and 21.8 µM, the TGI (COLO 205 colon) was > 100 µM and 58.6 µM and the GI50 (HCT-116 colon) was > 100 µM and 25 µM. The TGI (HCT-116 colon) was greater than 100 µM, the GI50 (T-47D breast) was > 100 µM and 26.3 µM and the TGI (T-47D breast) was greater than 100 µM. The GI50 (BT-549 breast) was > 100 µM and 15.2 µM, the TGI (BT-549 breast) was greater than 100 µM and the GI50 (U251 CNS) was > 100 µM and 30.9 µM. The TGI (U251 CNS) was greater than 100 µM, the GI50 (SK-OV-3 ovarian) was > 100 µM and 27.1 µM and the TGI (SK-OV-3 ovarian) was greater than 100 µM. The GI50 (CAKI-1 renal) was > 100 µM and 19.5 µM, the TGI (CAKI-1 renal) was greater than 100 µM and the GI50 (A498 renal) was > 100 µM and 14 µM. For the same compound, the TGI (A498 renal) was > 100 µM and 52.5 µM, the GI50 (OVCAR-5 ovarian) was > 100 µM and 41.8 µM and the TGI (OVCAR-5 ovarian) was greater than 100 µM. For the same compound, the TGI (LOX IMVI melanoma) was greater than 100 µM, the GI50 (CCRF-CEM leukemia) was > 100 µM and 29.7 µM and the TGI (CCRF-CEM leukemia) was greater than 100 µM. The GI50 (SF-295 CNS) was > 100 µM and 22.9 µM, the TGI (SF-295 CNS) was greater than 100 µM and the TGI (MDA-MB-435) was > 100 µM and 15.3 µM. The GI50 (MDA-MB-231 breast) was > 100 µM and 23.5 µM, the TGI (MDA-MB-231 breast) was greater than 100 µM and the GI50 (UACC-257 melanoma) was > 100 µM and 71.3 µM. The TGI (UACC-257 melanoma) was greater than 100 µM, the GI50 (HS 578T breast) was > 100 µM and 15.9 µM and the TGI (HS 578T breast) was > 100 µM and 64.1 µM. For the same compound, the GI50 (NCI/ADR-RES ovarian) was > 100 µM and 27.9 µM, the TGI (NCI/ADR-RES ovarian) was greater than 100 µM and the GI50 (PC-3 prostate) was > 100 µM and 31.9 µM. For the same compound, the TGI (PC-3 prostate) was greater than 100 µM, the GI50 (IGROV1 ovarian) was > 100 µM and 47.3 µM and the TGI (IGROV1 ovarian) was greater than 100 µM. The GI50 (RXF 393 renal) was > 100 µM and 21.1 µM, the TGI (RXF 393 renal) was > 100 µM and 76.5 µM and the GI50 (SK-MEL-5 melanoma) was > 100 µM and 46.1 µM. The TGI (SK-MEL-5 melanoma) was greater than 100 µM, the TGI (SR leukemia) was greater than 100 µM and the GI50 (NCI-H460 lung) was > 100 µM and 31.7 µM. For the same compound, the TGI (NCI-H460 lung) was greater than 100 µM, the GI50 (HL-60(TB) leukemia) was > 100 µM and 21 µM and the TGI (HL-60(TB) leukemia) was > 100 µM and 94.6 µM. For the same compound, the GI50 (SNB-75 CNS) was 39.4 µM and 5.4 µM, the TGI (SNB-75 CNS) was > 100 µM and 43.4 µM and the GI50 (786-0 renal) was > 100 µM and 46.2 µM. The TGI (786-0 renal) was greater than 100 µM, the GI50 (HOP-62 NSCLC) was > 100 µM and 34.3 µM and the TGI (HOP-62 NSCLC) was greater than 100 µM. The GI50 (SF-539 CNS) was > 100 µM and 25.8 µM, the TGI (SF-539 CNS) was greater than 100 µM and the GI50 (NCI-H23 lung) was > 100 µM and 46.9 µM. For the same compound, the TGI (NCI-H23 lung) was greater than 100 µM, the GI50 (TK-10 renal) was greater than 100 µM and the TGI (TK-10 renal) was greater than 100 µM. The GI50 (RPMI-8226 leukemia) was > 100 µM and 41.4 µM, the TGI (RPMI-8226 leukemia) was greater than 100 µM and the GI50 (OVCAR-4 ovarian) was > 100 µM and 92.2 µM. The TGI (OVCAR-4 ovarian) was greater than 100 µM, the GI50 (EKVX NSCLC) was > 100 µM and 66.5 µM and the TGI (EKVX NSCLC) was greater than 100 µM. For the same compound, the GI50 (A549 NSCLC) was > 100 µM and 35.5 µM, the TGI (A549 NSCLC) was greater than 100 µM and the GI50 (SNB-19 CNS) was > 100 µM and 29.3 µM. The TGI (SNB-19 CNS) was greater than 100 µM, the GI50 (MCF7 breast) was > 100 µM and 25.3 µM and the TGI (MCF7 breast) was greater than 100 µM. For the same compound, the GI50 (UACC-62 melanoma) was > 100 µM and 16.6 µM, the TGI (UACC-62 melanoma) was greater than 100 µM and the GI50 (SW-620 colon) was > 100 µM and 27.9 µM. The TGI (SW-620 colon) was greater than 100 µM, the GI50 (HOP-92 NSCLC) was > 100 µM and 10.2 µM and the TGI (HOP-92 NSCLC) was greater than 100 µM. For the same compound, the GI50 (MALME-3M melanoma) was > 100 µM and 37.8 µM, the TGI (MALME-3M melanoma) was greater than 100 µM and the GI50 (SK-MEL-2 melanoma) was > 100 µM and 20.5 µM. The TGI (SK-MEL-2 melanoma) was greater than 100 µM, the GI50 (UO-31 renal) was > 100 µM and 45.4 µM and the TGI (UO-31 renal) was greater than 100 µM. For the same compound, the GI50 (SK-MEL-28 melanoma) was greater than 100 µM, the TGI (SK-MEL-28 melanoma) was greater than 100 µM and the GI50 (HCC-2998 colon) was > 100 µM and 33 µM. The TGI (HCC-2998 colon) was greater than 100 µM, the GI50 (HT29 colon) was > 100 µM and 25.2 µM and the TGI (HT29 colon) was > 100 µM and 93.5 µM. For the same compound, the GI50 (SN12C renal) was > 100 µM and 38 µM, the TGI (SN12C renal) was greater than 100 µM and the GI50 (MOLT-4 leukemia) was > 100 µM and 36 µM. For the same compound, the TGI (MOLT-4 leukemia) was greater than 100 µM, the GI50 (NCI-H522 lung) was > 100 µM and 20.2 µM and the TGI (NCI-H522 lung) was > 100 µM and 70.1 µM. The TGI (K-562 leukemia) was greater than 100 µM, the GI50 (M14 melanoma) was > 100 µM and 17.3 µM and the TGI (M14 melanoma) was greater than 100 µM. For the same compound, the GI50 (ACHN renal) was > 100 µM and 85.1 µM and the TGI (ACHN renal) was greater than 100 µM.

Compound `NC(N)=Nc1ccc(Oc2cccc(Nc3ccc(Br)c(C(F)(F)F)c3)c2)cc1` has a GI50 (HCT-15 colon) of 2.05 µM, a TGI (HCT-15 colon) of 4.83 µM and a GI50 (SK-OV-3 ovarian) of 2.11 µM. It also gave a TGI (SK-OV-3 ovarian) of 5.12 µM, a GI50 (CAKI-1 renal) of 1.6 µM and a TGI (CAKI-1 renal) of 3.14 µM. It also gave a GI50 (A498 renal) of 1.49 µM, a TGI (A498 renal) of 2.91 µM and a GI50 (OVCAR-5 ovarian) of 1.63 µM. It also gave a TGI (OVCAR-5 ovarian) of 3.07 µM, a GI50 (CCRF-CEM leukemia) of 1.97 µM and a TGI (CCRF-CEM leukemia) of 5.5 µM. For the same compound, the GI50 (NCI/ADR-RES ovarian) was 14.6 µM, the TGI (NCI/ADR-RES ovarian) was 37.5 µM and the GI50 (PC-3 prostate) was 1.4 µM. The TGI (PC-3 prostate) was 2.73 µM, the GI50 (IGROV1 ovarian) was 1.19 µM and the TGI (IGROV1 ovarian) was 2.76 µM. The GI50 (RXF 393 renal) was 1.75 µM, the TGI (RXF 393 renal) was 3.27 µM and the GI50 (NCI-H460 lung) was 1.87 µM. It also gave a TGI (NCI-H460 lung) of 3.51 µM, a GI50 (SNB-75 CNS) of 1.23 µM and a TGI (SNB-75 CNS) of 2.56 µM. The GI50 (786-0 renal) was 1.6 µM, the TGI (786-0 renal) was 3.12 µM and the GI50 (SF-539 CNS) was 1.63 µM. It also gave a TGI (SF-539 CNS) of 3.09 µM, a GI50 (DU-145 prostate) of 1.8 µM and a TGI (DU-145 prostate) of 3.31 µM. For the same compound, the GI50 (NCI-H23 lung) was 1.67 µM, the TGI (NCI-H23 lung) was 3.37 µM and the GI50 (TK-10 renal) was 1.88 µM. For the same compound, the TGI (TK-10 renal) was 4.11 µM, the GI50 (RPMI-8226 leukemia) was 1.97 µM and the TGI (RPMI-8226 leukemia) was 4.61 µM. For the same compound, the GI50 (UACC-62 melanoma) was 1.77 µM, the TGI (UACC-62 melanoma) was 3.28 µM and the GI50 (HOP-92 NSCLC) was 0.829 µM. For the same compound, the TGI (HOP-92 NSCLC) was 2.16 µM, the GI50 (MALME-3M melanoma) was 1.8 µM and the TGI (MALME-3M melanoma) was 4.04 µM. It also gave a GI50 (UO-31 renal) of 3.08 µM, a TGI (UO-31 renal) of 11.5 µM and a GI50 (SF-268 CNS) of 1.68 µM. The TGI (SF-268 CNS) was 3.45 µM, the GI50 (SK-MEL-28 melanoma) was 1.77 µM and the TGI (SK-MEL-28 melanoma) was 3.22 µM. For the same compound, the GI50 (HT29 colon) was 1.56 µM, the TGI (HT29 colon) was 3.12 µM and the GI50 (NCI-H522 lung) was 1.6 µM. For the same compound, the TGI (NCI-H522 lung) was 3.35 µM, the GI50 (M14 melanoma) was 1.69 µM and the TGI (M14 melanoma) was 3.29 µM. The GI50 (ACHN renal) was 2.69 µM and the TGI (ACHN renal) was 7.84 µM.
